Test results published in US5140014A (Abbott Laboratories, priority 1989, dated 1992).
Like-named read-outs stand apart in the source and are kept apart here.

What was measured:
Experiment in all cases: in vitro antibacterial activity, agar dilution method (MIC)
Type in all cases: cell-based
Acinetobacter Sp = settings: Acinetobacter, strain CMX 669; BHI agar, 20-24 hours; read-out: MIC
Protocol: (§1) The test medium was Brain Heart Infusion (BHI) agar. The antibacterial agent was dissolved at a concentration of 2,000 ug/mL. Test plates were then prepared, usually 12 two-fold dilutions. After adding the sample to the plates, 10 mL of cooled BHI agar medium was added to each plate. The organisms were grown overnight in BHI broth (Difco) in a 35°-37° C. incubator.
(§2) On the day of testing, the bacterial suspensions were diluted 1:100 in sterile distilled water, except for a few slow-growing organisms (usually Micrococcus and Streptococcus) which were diluted 1:10. The plate was then inoculated with approximately 10^4 organisms. This was incubated in a 35°-37° C. incubator for 20-24 hours. Thereafter, the plates were read to determine the minimum inhibitory concentration (MIC) defined as the lowest concentration of drug yielding no growth on the plate, a slight haze, or sparsely isolated colonies on the inoculum spot as compared to the growth control.

Enterobacter Aerogenes = settings: Klebsiella aerogenes, ATCC13048, strain ATCC 13048; BHI agar, 20-24 hours; read-out: MIC
Protocol: as §1, §2

Enterococcus Faecium = settings: Enterococcus faecium, ATCC8043, strain ATCC 8043; BHI agar, 20-24 hours; read-out: MIC
Protocol: as §1, §2

Haemophilus Influenzae = settings: Haemophilus influenzae, BHI agar, 20-24 hours
Protocol: as §1, §2

Klebsiella Pneumoniae = settings: Klebsiella pneumoniae, ATCC8045, strain ATCC 8045; BHI agar, 20-24 hours; read-out: MIC
Protocol: as §1, §2

Micrococcus Luteus = settings: Micrococcus luteus, BHI agar, 20-24 hours, read-out: MIC
Protocol: as §1, §2

Providencia Stuartii = settings: Providencia stuartii; strain CMX 640; BHI agar, 20-24 hours; read-out: MIC
Protocol: as §1, §2

Pseudomonas Aeruginosa = settings: Pseudomonas aeruginosa, BHI agar, 20-24 hours, read-out: MIC
Protocol: as §1, §2

Staphylococcus Aureus = settings: Staphylococcus aureus
Protocol: as §1, §2

[1] = tested on: Staphylococcus Epidermidis; settings: Staphylococcus epidermidis, strain 3519; BHI agar, 20-24 hours; read-out: MIC
Protocol: as §1, §2

Streptococcus Agalactiae = settings: Streptococcus agalactiae
Protocol: as §1, §2

Streptococcus Bovis = settings: Streptococcus equinus, strain A5169; BHI agar, 20-24 hours
Protocol: as §1, §2

Streptococcus Pyogenes = settings: Streptococcus pyogenes
Protocol: as §1, §2

Escherichia Coli = settings: Escherichia coli, BHI agar, 20-24 hours, read-out: MIC
Protocol: as §1, with “Compounds 1 to 8 were evaluated for antibacterial activity by the agar dilution method to determine the degree of in vitro susceptibility of aerobic microorganisms to antimicrobial agents. The test” for “The test”
as §2

Pseudomonas Cepacia = settings: Burkholderia cepacia; strain 296I; BHI agar, 20-24 hours; read-out: MIC
Protocol: as §1, with “Compounds 1 to 8 were evaluated for antibacterial activity by the agar dilution method to determine the degree of in vitro susceptibility of aerobic microorganisms to antimicrobial agents. The test” for “The test”
as §2

[2] = ATCC10211, strain ATCC 10211, read-out: MIC
[3] = ATCC43095, strain ATCC 43095, read-out: MIC
[4] = strain DILL AMP R, read-out: MIC
[5] = strain SOL AMP R, read-out: MIC
[6] = strain SPK AMP R, read-out: MIC
[7] = NCTC10649, strain NCTC 10649, BHI agar, 20-24 hours, read-out: MIC
[8] = strain 45, BHI agar, 20-24 hours, read-out: MIC
[9] = strain 45 RAR2, BHI agar, 20-24 hours, read-out: MIC
[10] = strain 642A, BHI agar, 20-24 hours, read-out: MIC
[11] = strain A5177, BHI agar, 20-24 hours, read-out: MIC
[12] = strain CMX 553, BHI agar, 20-24 hours, read-out: MIC
[13] = strain 930 CONST, BHI agar, 20-24 hours, read-out: MIC
[14] = strain 2548 INDUC, BHI agar, 20-24 hours, read-out: MIC

Measured: MIC

CCC1OC(=O)CC(O)C(C)C(OC2OC(C)CC(N(C)C)C2O)C(CC=O)CC(C)C(N(C)C)C=CC(C)=CC1COC(C)=O (stereo not shown) [Example 5, [9R]-23-O-Acetyl-9-deoxo-4'-deoxy-9-N,N-dimethylamino-5-O-mycaminosyl-tylonide]
1 µg/mL: Haemophilus Influenzae; strain 504, read-out: MIC | Haemophilus Influenzae; strain 519A, read-out: MIC | Haemophilus Influenzae; strain 1435, read-out: MIC
0.39 µg/mL: Staphylococcus Aureus; ATCC6538P, strain ATCC 6538P, BHI agar, 20-24 hours, read-out: MIC | Staphylococcus Aureus; [7] | Staphylococcus Aureus; [8] | Staphylococcus Aureus; [11] | [1]
6.2 µg/mL: Escherichia Coli; strain DC-2
0.05 µg/mL: Streptococcus Agalactiae | Streptococcus Bovis | Streptococcus Pyogenes
2 µg/mL: Haemophilus Influenzae; ATCC9795, strain ATCC 9795, read-out: MIC | Haemophilus Influenzae; [2] | Haemophilus Influenzae; ATCC19418, strain ATCC 19418, read-out: MIC | Haemophilus Influenzae; [3] | Haemophilus Influenzae; strain 503B, read-out: MIC | Haemophilus Influenzae; strain 588A, read-out: MIC | Haemophilus Influenzae; strain 632A, read-out: MIC | Haemophilus Influenzae; strain 667A, read-out: MIC | Haemophilus Influenzae; strain 747C, read-out: MIC | Haemophilus Influenzae; [4] | Haemophilus Influenzae; [5] | Haemophilus Influenzae; [6]
12.5 µg/mL: Escherichia Coli; strain JUHL | Escherichia Coli; strain KNK 437
0.2 µg/mL: Streptococcus Pyogenes; [14] | Escherichia Coli; strain SS
3.1 µg/mL: Acinetobacter Sp | Escherichia Coli; strain H560
100 µg/mL: Pseudomonas Aeruginosa; strain BMH10
1.56 µg/mL: Pseudomonas Aeruginosa; strain K799/61
50 µg/mL: Enterobacter Aerogenes | Streptococcus Pyogenes; [13]
> 100 µg/mL: Providencia Stuartii | Pseudomonas Aeruginosa; strain A5007 | Pseudomonas Aeruginosa; strain K799/WT | Pseudomonas Cepacia
0.1 µg/mL: Enterococcus Faecium | Micrococcus Luteus; ATCC4698, strain ATCC 4698 | Micrococcus Luteus; ATCC9341, strain ATCC 9341
0.12 µg/mL: Haemophilus Influenzae; strain 1177, read-out: MIC
4 µg/mL: Haemophilus Influenzae; strain 566A, read-out: MIC | Haemophilus Influenzae; strain 751, read-out: MIC
25 µg/mL: Klebsiella Pneumoniae
0.78 µg/mL: Staphylococcus Aureus; [9] | Staphylococcus Aureus; [10] | Staphylococcus Aureus; [12]

CC[C@H]1OC(=O)C[C@@H](O)[C@H](C)[C@@H](O[C@@H]2O[C@H](C)C[C@H](N(C)C)[C@H]2O)[C@@H](CC=O)C[C@@H](C)C(=O)/C=C/[C@]2(C)O[C@H]2[C@@H]1C [Rosaramicin, 5-O-(4'-deoxy-mycaminosyl)-12,13-epoxy-23-deoxy-tylonide, reference compound]
0.78 µg/mL: Pseudomonas Aeruginosa; strain K799/61 | Staphylococcus Aureus; [11]
0.2 µg/mL: Streptococcus Agalactiae; strain CMX 508, BHI agar, 20-24 hours, read-out: MIC | Escherichia Coli; strain SS
0.12 µg/mL: Haemophilus Influenzae; strain 1177, read-out: MIC
1 µg/mL: Haemophilus Influenzae; ATCC9795, strain ATCC 9795 | Haemophilus Influenzae; ATCC19418, strain ATCC 19418 | Haemophilus Influenzae; strain 503B | Haemophilus Influenzae; strain 504 | Haemophilus Influenzae; strain 566A | Haemophilus Influenzae; strain 632A | Haemophilus Influenzae; strain 667A | Haemophilus Influenzae; strain 751
> 100 µg/mL: Streptococcus Pyogenes; [13]
0.1 µg/mL: Micrococcus Luteus; ATCC4698, strain ATCC 4698 | Streptococcus Pyogenes; strain EES61, BHI agar, 20-24 hours, read-out: MIC
25 µg/mL: Enterobacter Aerogenes | Pseudomonas Aeruginosa; strain K799/WT | Escherichia Coli; strain KNK 437 | Pseudomonas Cepacia
6.2 µg/mL: Escherichia Coli; strain H560
0.39 µg/mL: Enterococcus Faecium | Staphylococcus Aureus; ATCC6538P | Staphylococcus Aureus; [7] | Staphylococcus Aureus; [8] | Staphylococcus Aureus; [9] | Staphylococcus Aureus; [10] | Staphylococcus Aureus; [12] | [1] | Streptococcus Pyogenes; [14]
100 µg/mL: Providencia Stuartii | Pseudomonas Aeruginosa; strain A5007
12.5 µg/mL: Acinetobacter Sp | Klebsiella Pneumoniae | Escherichia Coli; strain DC-2 | Escherichia Coli; strain JUHL
0.5 µg/mL: Haemophilus Influenzae; [2] | Haemophilus Influenzae; [3] | Haemophilus Influenzae; strain 519A, read-out: MIC | Haemophilus Influenzae; strain 588A, read-out: MIC | Haemophilus Influenzae; strain 747C, read-out: MIC | Haemophilus Influenzae; strain 1435, read-out: MIC | Haemophilus Influenzae; [4] | Haemophilus Influenzae; [5] | Haemophilus Influenzae; [6]
50 µg/mL: Pseudomonas Aeruginosa; strain BMH10
